# Legend:
# IKZF2 = biological target: T1, IKZF2 (Homo sapiens, UniProt Q96SW2+Q9UKS7); test: Prolabel quantification of IKZF2 protein levels in 293GT cells; assay type: cell-based; conditions: Pro-label assay in 293GT cells; for IKZF2 Degradation (%): % degradation is at 10 μM; for AC50: read-out: IKZF2 Degradation AC50
# T1 construct: expressed in transfected cells
# Procedure: (§1) The Prolabel system from DiscoverX was used to develop high-throughput and quantitative assays to measure changes in IKZF1, IKZF2 and GSPT1 protein levels in response to compounds. The prolabel tag was derived from the alpha fragment of beta galactosidase and has the following protein sequence: mssnslavvlqadwenpgvtqlnrlaahppfaswrnseeartdrpsqqlislnge. The complementary fragment of beta-galactosidase (from DiscoverX), is added to the prolabel tag to form an active beta galactosidase enzyme whose activity can be precisely measured. In this way, the levels of a fusion protein with the prolabel tag can be quantified in cell lysates.
# (§2) Lentiviral vectors, based on the Invitrogen pLenti6.2/V5 DEST backbone, were constructed that placed the prolabel tag upstream of IKZF1, IKZF2 or GSPT1 and expressed the fusion protein from a CMV promoter.
# (§3) To ensure moderate and consistent expression of the prolabel fusion proteins across all cells in the population, stable cell lines were constructed from cells expressing a single copy of the construct. Lentivirus packaged with the constructs was made using the Virapower kit from Invitrogen.
# (§4) The levels of prolabel tagged fusion proteins in compound treated cell lines were measured as follows:
# (§5) Day 1, Cells were diluted to 1.0×10^6 cells/ml in normal growth medium. 17.5 μL, of cells were plated in each well of a solid white 384 well plate. Plates were incubated overnight in a 37° C. tissue culture incubator.
# (§6) Day 2, Serial dilutions of compounds were made in 384 well plates from 10 mM stocks. 15 μL, of DMSO was added to each well of a 384 well plate. In the first column, 15 μL of stock compound was added. The solution was mixed and 15 μL was transferred to the next column. This was repeated until 20 two-fold dilutions were prepared. 2.5 μL, of diluted compounds were transferred into 60 μL of cell culture medium in another 384 well plate, and mixed well. 2.5 μL of this mixture was added to the plated cells. The final DMSO concentration was 0.5% and the highest concentration of compound was 50 μM. Plates were incubated overnight (e.g., about 14 h, 18 h, or 24 h) in a 37° C. tissue culture incubator.
# (§7) Day 3, Plates were removed from the incubator and allowed to equilibrate at rt for 30 minutes. Prolabel substrate (DiscoverX PathHunter Prolabel Detection Kit, User manual: 93-0180) was added as described by the manufacturers protocols. Plates were incubated at rt for three hours and luminescence was read using an Envision reader (Perkin Elmer) Data was analyzed and visualized using the Spotfire software package.
# IKZF1 = biological target: T2, IKZF1 (Homo sapiens, UniProt Q13422+Q96SW2); test: Prolabel quantification of IKZF1 protein levels in 293GT cells; assay type: cell-based; conditions: Pro-label assay in 293GT cells; for IKZF1 Degradation (%): % degradation is at 10 μM; for AC50: read-out: IKZF1 Degradation AC50
# T2 construct: expressed in transfected cells
# T2 sequence (Q13422 whole entry): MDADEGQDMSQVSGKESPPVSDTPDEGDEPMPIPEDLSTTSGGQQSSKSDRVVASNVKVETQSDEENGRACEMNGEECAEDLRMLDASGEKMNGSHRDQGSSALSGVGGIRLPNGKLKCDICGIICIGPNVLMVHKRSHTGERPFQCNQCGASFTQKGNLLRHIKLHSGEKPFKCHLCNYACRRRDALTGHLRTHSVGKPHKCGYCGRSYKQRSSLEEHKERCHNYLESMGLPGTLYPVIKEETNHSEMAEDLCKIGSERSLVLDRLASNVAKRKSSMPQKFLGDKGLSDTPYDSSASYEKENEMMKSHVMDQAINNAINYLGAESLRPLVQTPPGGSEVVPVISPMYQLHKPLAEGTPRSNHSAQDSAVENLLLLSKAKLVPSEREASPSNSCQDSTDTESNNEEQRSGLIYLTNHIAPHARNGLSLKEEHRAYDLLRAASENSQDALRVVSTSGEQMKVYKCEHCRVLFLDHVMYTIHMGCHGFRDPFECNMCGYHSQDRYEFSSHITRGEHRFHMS
# T2 sequence (Q96SW2 whole entry): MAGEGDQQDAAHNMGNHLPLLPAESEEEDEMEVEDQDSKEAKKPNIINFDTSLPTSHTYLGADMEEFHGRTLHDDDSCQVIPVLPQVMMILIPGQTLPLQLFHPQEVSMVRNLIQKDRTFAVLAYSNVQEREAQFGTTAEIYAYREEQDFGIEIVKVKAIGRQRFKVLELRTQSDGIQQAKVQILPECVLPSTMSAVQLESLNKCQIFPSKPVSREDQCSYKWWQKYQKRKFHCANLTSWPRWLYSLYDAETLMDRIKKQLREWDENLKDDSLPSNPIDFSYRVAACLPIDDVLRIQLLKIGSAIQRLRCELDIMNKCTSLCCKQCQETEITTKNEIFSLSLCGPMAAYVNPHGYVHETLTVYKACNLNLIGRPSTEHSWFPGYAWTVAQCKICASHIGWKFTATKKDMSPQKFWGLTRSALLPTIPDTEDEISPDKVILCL
# T2 sequence (Q16531 whole entry partner): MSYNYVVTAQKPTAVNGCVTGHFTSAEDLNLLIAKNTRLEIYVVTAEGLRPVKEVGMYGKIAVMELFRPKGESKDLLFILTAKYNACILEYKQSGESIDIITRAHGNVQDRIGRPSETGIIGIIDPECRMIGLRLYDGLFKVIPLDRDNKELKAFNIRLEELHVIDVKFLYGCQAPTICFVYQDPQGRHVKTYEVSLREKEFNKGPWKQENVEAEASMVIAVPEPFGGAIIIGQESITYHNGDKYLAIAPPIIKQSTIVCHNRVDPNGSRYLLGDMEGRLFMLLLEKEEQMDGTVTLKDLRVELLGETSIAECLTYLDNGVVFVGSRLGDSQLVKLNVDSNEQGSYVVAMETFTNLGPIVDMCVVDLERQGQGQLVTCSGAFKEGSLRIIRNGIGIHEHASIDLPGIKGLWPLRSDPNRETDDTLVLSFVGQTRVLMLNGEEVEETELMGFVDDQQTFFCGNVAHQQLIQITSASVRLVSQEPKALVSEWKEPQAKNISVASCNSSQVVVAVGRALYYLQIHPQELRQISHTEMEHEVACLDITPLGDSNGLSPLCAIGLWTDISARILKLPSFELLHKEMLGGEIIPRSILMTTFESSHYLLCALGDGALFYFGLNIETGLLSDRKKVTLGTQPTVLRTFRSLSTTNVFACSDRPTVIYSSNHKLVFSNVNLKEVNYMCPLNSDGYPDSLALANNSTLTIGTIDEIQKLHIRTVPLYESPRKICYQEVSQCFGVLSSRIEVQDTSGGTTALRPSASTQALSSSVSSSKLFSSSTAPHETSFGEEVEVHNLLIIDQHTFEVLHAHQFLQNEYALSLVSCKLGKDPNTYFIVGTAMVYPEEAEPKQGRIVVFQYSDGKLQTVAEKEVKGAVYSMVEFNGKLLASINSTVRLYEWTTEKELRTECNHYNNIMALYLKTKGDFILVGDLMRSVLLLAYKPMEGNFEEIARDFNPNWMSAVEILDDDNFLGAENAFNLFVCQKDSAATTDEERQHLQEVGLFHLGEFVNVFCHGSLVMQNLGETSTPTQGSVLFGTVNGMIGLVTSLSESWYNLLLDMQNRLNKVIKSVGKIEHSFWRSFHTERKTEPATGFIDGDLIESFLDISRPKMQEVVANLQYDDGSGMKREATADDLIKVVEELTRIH
# Procedure: as §1, §2, §3, §4, §5, §6, §7
# T1 sequence (Q9UKS7 whole entry): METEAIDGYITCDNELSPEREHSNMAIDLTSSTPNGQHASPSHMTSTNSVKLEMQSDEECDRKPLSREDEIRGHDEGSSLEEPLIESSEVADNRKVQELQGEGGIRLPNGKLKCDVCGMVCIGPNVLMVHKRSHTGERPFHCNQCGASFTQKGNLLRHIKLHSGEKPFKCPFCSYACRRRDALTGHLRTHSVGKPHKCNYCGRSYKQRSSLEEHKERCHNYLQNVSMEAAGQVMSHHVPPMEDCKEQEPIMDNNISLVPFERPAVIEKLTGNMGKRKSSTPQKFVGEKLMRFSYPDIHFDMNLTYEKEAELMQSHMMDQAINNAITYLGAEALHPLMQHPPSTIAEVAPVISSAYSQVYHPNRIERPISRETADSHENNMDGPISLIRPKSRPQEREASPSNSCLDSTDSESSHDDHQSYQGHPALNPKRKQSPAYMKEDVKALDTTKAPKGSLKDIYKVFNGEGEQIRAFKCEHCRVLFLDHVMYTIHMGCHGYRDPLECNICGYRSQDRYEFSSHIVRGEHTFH
# T1 sequence (Q96SW2 whole entry): as the sequence (Q96SW2 whole entry) above
# T1 sequence (Q16531 whole entry partner): as the sequence (Q16531 whole entry partner) above
SMILES,IKZF2 Degradation (%) (IKZF2),AC50 (IKZF2),IKZF1 Degradation (%) (IKZF1),AC50 (IKZF1)
"CO[C@H]1CC[C@H](CN2CCC(c3ccc4c(c3Cl)CN(C3CCC(=O)NC3=O)C4=O)CC2)CC1 (stereo partly drawn) [Compound I-17, 3-(4-chloro-5-(1-(((1r,4r)-4-methoxycyclohexyl)methyl)piperidin-4-yl)-1-oxoisoindolin-2-yl)piperidine-2,6-dione]",30%,75 nM,40%,130 nM
"Cc1c(C2CCN(Cc3ccccc3)CC2)ccc2c1CN(C1CCC(=O)NC1=O)C2=O (stereo not drawn) [Compound I-5, 3-(5-(1-benzylpiperidin-4-yl)-4-methyl-1-oxoisoindolin-2-yl)piperidine-2,6-dione]",59%,110 nM,–,> 30000 nM
"Nc1cccc2c1C(=O)N(C1CCC(=O)NC1=O)C2=O (stereo not drawn) [Pomalidomide, 4-amino-2-(2,6-dioxopiperidin-3-yl)isoindoline-1,3-dione, reference compound]",–,–,80%,–
"O=C1CCC(N2Cc3c(ccc(C4CCN(Cc5ccccc5)CC4)c3F)C2=O)C(=O)N1 (stereo not drawn) [Compound I-3, 3-(5-(1-benzylpiperidin-4-yl)-4-fluoro-1-oxoisoindolin-2-yl)piperidine-2,6-dione]",72%,6 nM,–,> 30000 nM
"O=C1CCC(N2Cc3cc(C4CCN(Cc5ccncc5)CC4)c(F)cc3C2=O)C(=O)N1 (stereo not drawn) [Compound I-16, 3-(6-fluoro-1-oxo-5-(1-(pyridin-4-ylmethyl)piperidin-4-yl)isoindolin-2-yl)piperidine-2,6-dione]",42%,560 nM,22%,7600 nM
"O=C1CCC(N2Cc3nc(C4CCN(Cc5ccccc5)CC4)ccc3C2=O)C(=O)N1 (stereo not drawn) [Compound I-1, 3-(2-(1-benzylpiperidin-4-yl)-5-oxo-5,7-dihydro-6H-pyrrolo[3,4-b]pyridin-6-yl)piperidine-2,6-dione]",33%,260 nM,–,> 30000 nM
"COc1c(C2=CCN(Cc3ccccc3)CC2)ccc2c1CN(C1CCC(=O)NC1=O)C2=O (stereo not drawn) [Compound I-20, 3-(5-(1-benzyl-1,2,3,6-tetrahydropyridin-4-yl)-4-methoxy-1-oxoisoindolin-2-yl)piperidine-2,6-dione]",42%,200 nM,40%,66 nM
"O=C1CCC(N2Cc3cc(C4CCN(Cc5ccccc5)CC4)ncc3C2=O)C(=O)N1 (stereo not drawn) [Compound I-2, 3-(6-(1-benzylpiperidin-4-yl)-3-oxo-1,3-dihydro-2H-pyrrolo[3,4-c]pyridin-2-yl)piperidine-2,6-dione]",–,> 30000 nM,–,> 30000 nM

# Source: patent publication US12479817B2, “Substituted 3-(1-oxoisoindolin-2-yl)piperidine-2,6-dione derivatives and uses thereof” (Novartis AG, priority 2019, dated 2025)
